Data published in US20160199445A1, “USE OF ARPIN A NEW INHIBITOR OF THE ARP2/3 COMPLEX FOR THE DIAGNOSIS AND TREATMENT OF DISEASES” (CENTRE NATIONAL DE LA RECHERCHE SCIENTIFIQUE, priority 2013, published 2016).

Tests used:
Arp2/3 complex [1] = assay: Fluorescence anisotropy based determination of Kd (labelled ArpinA peptide, purified Arp2/3 complex); assay type: binding; conditions: for displacement of labelled ArpinA peptide bound to the Arp2/3 complex: titration of labelled ArpinA peptide/Arp2/3 complex with purified protein
Description: FIG. 5: Arpin directly binds to the Arp2/3 complex with a dissociation constant of 200 nM. a, Fluorescence anisotropy measurements of labelled ArpinA peptide binding at equilibrium to the purified Arp2/3 complex at the indicated concentrations. b, Labelled ArpinA peptide bound to the Arp2/3 complex was then titrated with purified Arpin FL, ArpinΔA or unlabelled ArpinA peptide as indicated. […] Curves that best fit the values yield the indicated equilibrium constants.
The ArpinA peptide was synthesized and labelled with 5-TAMRA at the N-terminus (PROTEOGENIX). The peptide was excited with polarised light at 549 nm and emitted light was detected at 573 nm using a MOS450 fluorimeter (BIOLOGIC). Measurements were made for 60 s at 1 point/s and the average anisotropy was calculated with the Biologic software. Fits were performed as described in reference 40.

Arp2/3 complex [2] = assay: Pyrene-actin polymerisation assay (spectrofluorimetry); assay type: biochemical; conditions: for inhibition of VCA-activated Arp2/3 actin polymerisation: 2 μM actin (10% pyrene-labelled), 500 nM VCA, 20 nM Arp2/3
Description: (§1) FIG. 1: Arpin inhibits Arp2/3 activation in vitro. a, Alignment of acidic C-termini of 3 NPFs and of Arpin. […] Pulldown was performed with HeLa cell extract and GST fusions of Arpin full length (FL), Arpin deleted of its last 16 amino-acids (ΔA), the last 16 amino-acids (A) or the VCA domain of N-WASP as a positive control. Arp2/3 binding was assessed by western blot against the ArpC2 subunit. c, Spectrofluorimetry assay to monitor actin polymerisation.
Conditions: 2 μM Actin (10% pyrene-labelled), 20 nM Arp2/3, 500 nM Scar VCA, 5 μM Arpin.
FIG. 8: Determination of apparent Kd from Arpin inhibition of Arp2/3 nucleation. a, Arpin inhibits Arp2/3 activation in the pyrene-actin assay.
(§2) Arp2/3 is displaced from its interaction with 5 μM GST N-WASP VCA immobilized on glutathione beads by the Arpin Acidic peptide (304 μM and serial 2-fold dilutions).
(§3) Pyrene actin assays and monitoring of the branching reaction were performed as described in reference 38 with the conditions described in figure legends. VCA refers to the VCA domain of WAVE1 purified as described^39.

Arp2/3 complex [3] = assay: Assembly of branched actin networks monitored by TIRF microscopy; assay type: biochemical; conditions: 1 μM actin, 150 nM VCA, 80 nM Arp2/3, Arpin at 5 μM; 5, 10, 15 and 20 min
Description: as §1
FIG. 10: Quantification of Arpin inhibition on the generation of branched actin networks. Conditions as in FIG. 1d. Images were extracted from the TIRF movies, 5, 10, 15 and 20 min after initiation of the reaction. The number of branches and filaments were counted and the ratio determined.
as §3

Arp2/3 complex [4] = assay: Competition pulldown: HeLa cell extract and GST N-WASP VCA immobilized on glutathione beads; assay type: binding; conditions: 5 μM GST N-WASP VCA; Arpin/ArpinΔA 18 μM, ArpinA 304 μM and serial 2-fold dilutions
Description: as §1, §2
(§4) 6. GST Pull Down, Immunoprecipitations, SDS-PAGE and Western Blots HeLa cells were lysed in 50 mM Tris-HCl, 150 mM NaCl, 1 mM EDTA, 1 mM DTT, 0.5% Triton-X100, 5% glycerol, pH 7.5. 20 μg of GST fusion protein associated with 20 μl of glutathione sepharose 4B beads (GE […]) were incubated with 1 ml of HeLa cell extracts for 2 h at 4° C. Beads were washed and analysed by western blot.

Arp2/3 complex [5] = assay: GST fusion pulldown of Arp2/3 from HeLa cell extract (western blot against ArpC2); assay type: binding; conditions: GST fusions
Description: as §1, §4

trout keratocytes = assay: Microinjection of purified protein into migrating fish keratocytes; assay type: cell-based, brook trout (Salvelinus fontinalis); conditions: injected fish keratocytes; for turning (direction autocorrelation): n≧8, P<0.05 between 16 and 272 s
Source text: FIG. 24: Arpin microinjection induces fish keratocyte to turn. a, Trout keratocytes were micro-injected with purified full length Arpin, ArpinΔA or buffer as control. Upon micro-injection of Arpin, lamellipodia were modified and the cells turned. Scale bar, 20 μm. b, Quantifications of the indicated parameters. Mean±sem; n≧8, * P<0.05, *** P<0.001, ANOVA. c, Kymograph of the Arpin microinjected keratocyte. The leading edge undergoes cycles of protrusions and retractions. d, Model. Directional persistence of migration in this cell system requires a positive feedback loop. Branched actin is sensed and activates Rac as a response. In this context, WAVE closes a positive feedback loop. In contrast, Arpin closes a negative feedback loop. These two nested positive and negative feedback loops can account for the oscillatory behavior of the leading edge observed upon Arpin micro-injection.
FIG. 25: Procedures to quantify fish keratocyte migration. a, Kymograph analysis. Lamellipodial dynamics were studied along a one-pixel-wide line oriented in the direction of protrusions, using the MultiKymograph plug-in in ImageJ. Protrusion velocity was the average of all protrusion slopes at the front of the cell. Projections along the distance axis and the time axis, gave, respectively, length and duration of the protrusion. Cell speed was determined using the slope of the dashed line indicating the rear of the cell. b, Outline analysis. Cell contours were defined using CellTrack software (http://db.cse.ohio-state.edu/CellTrack) and manually adjusted when necessary. The cell from frame t is overlayed with the same cell in frame t+100 s, using their center of mass as a reference. The non-overlapping areas are summed up to give the cell deformation between these two frames. […]
Keratocytes were isolated from scales of freshly killed brook trout (Salvelinus fontinalis) as previously described^41 and imaged by phase contrast on an inverted Zeiss Axioscope using ×63 optics, and a halogen lamp as light source. […] Contours were analysed using the CellTrack software (OHIO STATE UNIVERSITY). […]

MDA-MB-231 cells = assay: Electroporation of MDA-MB-231 cells with purified Arpin; analysis of cell migration; assay type: cell-based, human
Source text: FIG. 27: Electroporation of MDA-MB-231 cells with purified Arpin; analysis of cell migration.
Purified recombinant Arpin can be introduced efficiently into various cell types by electroporation as shown in FIG. 26 with retinal pigment epithelial (RPE-I) cells, mouse embryonic fibroblasts (MEFs) and breast invasive human cell line MDA-MB-231. MDA-MB-231 cells depleted of Arpin migrates faster and more directionally than their respective non-targeting controls (shCtrl).

prechordal plate cells = assay: Prechordal plate cell migration and protrusions in morpholino-injected zebrafish embryos; assay type: in vivo
Source text: FIG. 17: Arpin regulates protrusion frequency of prechordal plate cells and their collective migration in zebrafish embryos. a, In situ hybridisation of arpin probe in zebrafish embryos at different stages. arpin mRNAs are maternally deposited. During gastrulation, arpin is expressed in hypoblast, which includes the prechordal plate. b, 3D trajectories of prechordal plate cells in embryos injected with control or arpin morpholino. During fish gastrulation, prechordal plate cells migrate collectively in a straight direction from the margin of the embryo towards the animal pole^32,33. […] Lateral displacement is the cell movement perpendicular to main direction of the migration. Distance between cells refers to the average distance of the nucleus of a given cell to the nuclei of its 5 closest neighbors. Mean±sem; n≧1469; *** P<0.001, t-test. c, At the onset of gastrulation prechordal plate cells derived from morpholino injected embryos were transplanted into the prechordal plate of an untreated host embryo at the same stage in order to allow imaging of cell autonomous effects on protrusion formation. Donor embryos are injected with control or arpin morpholinos and mRNAs encoding Lifeact-mCherry as well as GFP-Arpin for the rescue. Time lapse imaging of injected cells is performed by epifluorescence to reveal Lifeact a marker of filamentous actin, which stains actin-based protrusions. […]

Substance | Kd (Arp2/3 complex [1]; fluorescence anisotropy, purified Arp2/3 complex, read-out: dissociation constant for binding to the Arp2/3 complex) [nM] | displacement of labelled ArpinA peptide bound to the Arp2/3 complex (Arp2/3 complex [1]) | effect on spontaneous actin nucleation and activation of the Arp2/3 complex (Arp2/3 complex [2]; 2 μM Actin (10% pyrene-labelled), 20 nM Arp2/3, 500 nM Scar VCA, 5 μM Arpin) | inhibition of VCA-activated Arp2/3 actin polymerisation (Arp2/3 complex [2]) | Kd (Arp2/3 complex [2]; in a mixture including actin and the VCA, best fit of number of actin barbed ends, read-out: apparent Kd for the Arp2/3 complex from inhibition of Arp2/3 nucleation) [nM] | frequency of branches in actin networks (ratio branches/filaments) (Arp2/3 complex [3]) | competition with the NPF (VCA) for Arp2/3 binding (Arp2/3 complex [4]) | Arp2/3 binding in pulldown (Arp2/3 complex [5]) | territory explored (Mean Square Displacement) (trout keratocytes; n≧8, P<0.001) | turning (direction autocorrelation) (trout keratocytes) | speed and persistence of migration (MDA-MB-231 cells; Arpin-depleted MDA-MB-231 cells electroporated with purified Arpin) | idling (active movement) (MDA-MB-231 cells; MDA-MB-231 cells electroporated with Arpin protein) | inhibition of VCA-activated Arp2/3 actin polymerisation (Arp2/3 complex [2]; listed as Acidic peptide) | dispersion of prechordal plate cells (lateral displacement, distance between cells) (prechordal plate cells; embryos injected with control or arpin morpholino, n≧1469, P<0.001) | probability of presence of protrusions and their duration (prechordal plate cells; transplanted prechordal plate cells from morpholino injected embryos, P<0.05)
Arpin: protein of SEQ ID NO: 1, product of human C15orf38 gene (residues 1-226); new inhibitor of the Arp2/3 complex | 200 | displaces the labelled ArpinA peptide more efficiently than the A peptide | does not affect spontaneous actin nucleation and does not activate the Arp2/3 complex | inhibited actin polymerisation in a dose-dependent manner | 760 ± 156 | decreases the frequency of branches in actin networks | Arp2/3 is displaced from its interaction with the VCA | binds to the Arp2/3 complex through its acidic C-terminal region | explore a smaller territory than the controls | turn more than wild type | speed and persistence decreased | more idling (less active movement) | – | – | –
ArpinA: ArpinA peptide, residues 211-226 of full length Arpin (last 16 amino-acids, EIREQGDGAEDEEWDD) | – | – | – | inhibits Arp2/3 activation in a dose dependent manner | – | – | competes with the NPF for Arp2/3 binding | – | – | – | – | – | sufficient for this inhibition, although it was less effective than full length Arpin | – | –
ArpinΔA: Arpin deleted of its last 16 amino-acids (residues 1-210); human or zebrafish recombinant | – | unable to displace the ArpinA peptide | – | not | – | – | not | – | – | turn more than wild type but less than wild type Arpin injected keratocytes | – | – | – | – | –
GTTGTCATAAATACGACTCATCTTC (all phosphorodiamidate morpholino (PMO)) [arpin morpholino] | – | – | – | – | – | – | – | – | – | – | – | – | – | induces dispersion as evidenced by increased lateral cell displacement and a higher distance between cells | increases the probability of presence of protrusions
